The supplement of paper PMC8671470

How the values were obtained:
Conditions in all cases: 72 h
[1] = tested on: myeloid leukemia patient primary cells Pat.9; assay: area under dose-response curve (viability, 1 nM-10 uM) (fraction (0-1)); higher = more sensitive
Procedure: (§1)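 AUC (0–1, higher = more sensitive) of the 5-point dose–response (1 nM–10 µM, 72 h, CellTiter-Glo) in primary AML/CML patient mononuclear cells. 0.030103 is the floor for inactive compounds.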

[2] = tested on: myeloid leukemia patient primary cells Pat.8; assay: as above
Procedure: as §1

[3] = tested on: myeloid leukemia patient primary cells Pat.3; assay: as above
Procedure: as §1

[4] = tested on: myeloid leukemia patient primary cells Pat.11; assay: as above
Procedure: as §1

[5] = tested on: myeloid leukemia patient primary cells Pat.2; assay: as above
Procedure: as §1

[6] = tested on: myeloid leukemia patient primary cells Pat.4; assay: as above
Procedure: as §1

[7] = tested on: myeloid leukemia patient primary cells Pat.7; assay: as above
Procedure: as §1

[8] = tested on: myeloid leukemia patient primary cells Pat.1; assay: as above
Procedure: as §1

[9] = tested on: myeloid leukemia patient primary cells Pat.6; assay: as above
Procedure: as §1

[10] = tested on: myeloid leukemia patient primary cells Pat.14; assay: as above
Procedure: as §1

[11] = tested on: myeloid leukemia patient primary cells Pat.12; assay: as above
Procedure: as §1

[12] = tested on: myeloid leukemia patient primary cells Pat.15; assay: as above
Procedure: as §1

[13] = tested on: myeloid leukemia patient primary cells Pat.5; assay: as above
Procedure: as §1

[14] = tested on: myeloid leukemia patient primary cells Pat.13; assay: as above
Procedure: as §1

[15] = tested on: myeloid leukemia patient primary cells Pat.10; assay: as above
Procedure: as §1

[16] = tested on: myeloid leukemia patient primary cells Pat.9; assay: cell viability (% survival relative to DMSO control); higher = less cytotoxic
Summary of the method: (§2)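 Where an area under the curve appears, it was computed with the drc and PharmacoGx R packages from log-logistic fits. Those fits used four parameters. The underlying viability data came from CellTiter-Glo after 72 h, normalised to DMSO and 10 μM proteasome-inhibitor wells, with thawed, Ficoll-purified AML or CML patient mononuclear cells at 10,000 cells/well in RPMI 1640 with 10% FBS on 384-well plates pre-printed with 70 compounds at five tenfold concentrations (1–10,000 nM) in duplicate.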

[17] = tested on: myeloid leukemia patient primary cells Pat.11; assay: as above
Summary of the method: as §2

[18] = tested on: myeloid leukemia patient primary cells Pat.2; assay: as above
Summary of the method: as §2

[19] = tested on: myeloid leukemia patient primary cells Pat.1; assay: as above
Summary of the method: as §2

[20] = tested on: myeloid leukemia patient primary cells Pat.5; assay: as above
Summary of the method: as §2

[21] = tested on: myeloid leukemia patient primary cells Pat.13; assay: as above
Summary of the method: as §2

[22] = tested on: HL-60; assay: cell viability (% survival relative to DMSO control); higher = less cytotoxic
Summary of the method: (§3)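 In 384-well plates, the full library was rescreened in duplicate on HL-60 cells in RPMI 1640 with 10% FBS, at 1–10,000 nM in five tenfold concentrations, for 72 h at 37 °C, 5% CO2. Each run also held DMSO or 100 nM of one of three metabolic inhibitors. Viability was measured by CellTiter-Glo and normalised to DMSO wells and to wells with proteasome inhibitor, present at 10 μM. Any area under the curve comes from four-parameter log-logistic fitting with drc and PharmacoGx.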

[23] = tested on: HL-60; assay: area under dose-response curve (viability, 1 nM-10 uM) (fraction (0-1)); higher = more sensitive
Summary of the method: as §3

CN(C)CCNC(=O)c1cccn2c(=O)c3cc4ccccc4cc3nc12 [Bmh-21]
Conditions	area under dose-response curve
[1]	0.396
[2]	0.121
[3]	0.351
[4]	0.31
[5]	0.0874
[6]	0.36
[7]	0.318
[8]	0.368
[9]	0.199
[10]	0.254
[11]	0.233
[12]	0.386
[13]	0.372
[14]	0.338
[15]	0.263

Conditions	area under dose-response curve, co-treatment: AZD3965 100 nM	area under dose-response curve, co-treatment: DMSO vehicle	area under dose-response curve, co-treatment: GSK2194069 100 nM	cell viability, 1 nM [%]	cell viability, 10 nM [%]	cell viability, 100 nM [%]	cell viability, 1000 nM [%]	cell viability, 10000 nM [%]
[16]	–	–	–	63	90.4	69.9	3.68	3.45
[17]	–	–	–	> 100	97.6	> 100	24.3	1.02
[18]	–	–	–	96.5	98.5	97.8	91.6	33.1
[19]	–	–	–	85.9	91.9	91.5	3.71	0.712
[20]	–	–	–	35.6	94.1	79.9	1.33	0.265
[21]	–	–	–	87.4	96.6	84.1	19.7	1.27
[23]	0.0645	0.0352	0.0524	–	–	–	–	–

cell viability [%], [22]
Conditions	0.001 µM	0.01 µM	0.1 µM	1 µM	10 µM
co-treatment: AZD3965 100 nM	97.56	95.3	101	91.9	48.8
co-treatment: DMSO vehicle	101.2	98.3	102	98.4	74.2
co-treatment: GSK2194069 100 nM	98.9	102	101	94.5	66
co-treatment: pictilisib 100 nM	94.2	100.6	104	85.7	73.8

O=C(Cc1cccc(OC(F)(F)F)c1)Nc1ccc(CCCCc2nnc(NC(=O)Cc3ccccn3)s2)nn1 [CB-839]
Conditions	area under dose-response curve
[1]	0.752
[2]	< 0.0301
[3]	0.702
[4]	< 0.0301
[5]	< 0.0301
[6]	< 0.0301
[7]	0.532
[8]	< 0.0301
[9]	< 0.0301
[10]	0.434
[11]	< 0.0301
[12]	0.283
[13]	< 0.0301
[14]	< 0.0301
[15]	0.665

Conditions	area under dose-response curve, co-treatment: AZD3965 100 nM	area under dose-response curve, co-treatment: DMSO vehicle	area under dose-response curve, co-treatment: GSK2194069 100 nM	area under dose-response curve, co-treatment: pictilisib 100 nM	cell viability, 1 nM [%]	cell viability, 10 nM [%]	cell viability, 100 nM [%]	cell viability, 1000 nM [%]	cell viability, 10000 nM [%]
[16]	–	–	–	–	62.2	35.3	1.99	7.13	14.1
[17]	–	–	–	–	94.1	88.4	85.1	74.3	90.7
[18]	–	–	–	–	86.8	91.3	78.1	87	88.3
[19]	–	–	–	–	84.7	81.3	46.7	56.4	59.1
[20]	–	–	–	–	17.1	53.9	2.39	5.69	19.5
[21]	–	–	–	–	85.3	88.9	69	64.6	84
[23]	0.0553	< 0.0301	0.0569	0.0991	–	–	–	–	–

cell viability [%], [22]
Conditions	0.001 µM	0.01 µM	0.1 µM	1 µM	10 µM
co-treatment: AZD3965 100 nM	105	103.64	103	93.2	71.4
co-treatment: DMSO vehicle	97.2	102	97.9	93.6	88.7
co-treatment: GSK2194069 100 nM	103	94.8	97.4	94.1	77.9
co-treatment: pictilisib 100 nM	100.52	87.5	78.3	71.08	54
